US7282507B2, “Indole derivatives as selective androgen receptor modulators (SARMS)” (Janssen Pharmaceutica N.V., priority 2004, dated 2007)
“And” between values parts separate entries of the source, which are not always exact repeats. Identical values can stand only once. Like-named read-outs stand apart in the source and are kept apart here.

Experiments:
[1] = molecular target: T1, androgen receptor (AdEasy+rAR, L929 cells) (Rattus norvegicus, UniProt P15207); experiment: L929 Androgen Receptor Functional Assay, Adenovirus Transduction; type: cell-based; conditions: for inhibition at 3 µM: L929, antagonist testing with R1881, 3000 nM; for % Activity, L929 androgen receptor functional assay / EC50: agonist testing; for IC50: antagonist testing with R1881; for % Inhibition, L929 androgen receptor functional assay: antagonist testing with R1881, 3000 nM
T1 construct: expressed in transfected cells; host or cells: L929 cells transduced with adenovirus AdEasy+rAR
T1 sequence (P15207 1-902): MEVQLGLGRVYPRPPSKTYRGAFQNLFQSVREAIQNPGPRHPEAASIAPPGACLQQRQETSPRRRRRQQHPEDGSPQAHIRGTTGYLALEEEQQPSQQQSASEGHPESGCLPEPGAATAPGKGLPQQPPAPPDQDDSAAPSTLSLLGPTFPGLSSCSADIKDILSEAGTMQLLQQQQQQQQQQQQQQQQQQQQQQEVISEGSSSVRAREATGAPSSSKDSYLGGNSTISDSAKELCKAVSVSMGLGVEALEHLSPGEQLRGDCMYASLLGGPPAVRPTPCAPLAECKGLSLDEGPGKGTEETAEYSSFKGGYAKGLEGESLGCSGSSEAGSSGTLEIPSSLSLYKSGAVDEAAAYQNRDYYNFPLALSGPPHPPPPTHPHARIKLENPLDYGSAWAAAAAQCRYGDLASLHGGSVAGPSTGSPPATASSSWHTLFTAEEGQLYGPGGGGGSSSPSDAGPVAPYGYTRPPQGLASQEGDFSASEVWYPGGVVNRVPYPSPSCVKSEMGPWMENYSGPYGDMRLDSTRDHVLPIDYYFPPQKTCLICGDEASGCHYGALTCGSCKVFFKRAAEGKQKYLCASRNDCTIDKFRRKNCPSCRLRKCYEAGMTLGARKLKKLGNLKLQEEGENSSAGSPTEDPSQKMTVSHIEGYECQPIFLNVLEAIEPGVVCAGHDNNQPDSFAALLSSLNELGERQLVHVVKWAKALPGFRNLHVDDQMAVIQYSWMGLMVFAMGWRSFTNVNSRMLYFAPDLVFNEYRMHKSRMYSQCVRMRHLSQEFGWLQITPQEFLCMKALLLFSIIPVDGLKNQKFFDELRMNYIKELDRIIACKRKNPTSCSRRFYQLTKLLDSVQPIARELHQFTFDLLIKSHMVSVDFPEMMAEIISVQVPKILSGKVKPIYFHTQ
How it was run: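 L929 cells in phenol red-free, charcoal-stripped serum medium transduced with AdEasy+rAR (moi 1:500) and exposed 48 h at 37 °C to compound alone (agonist mode) or with R1881 (antagonist mode; 2.5 nM as the 2.5× dilution).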

[2] = molecular target: T2, androgen receptor (AdEasy+rAR, COS-7 cells) (Rattus norvegicus, UniProt P15207); experiment: COS-7 Whole-Cell Androgen Receptor Binding Assay, Adenovirus Transduction; conditions: for inhibition at 3 µM / % Inhibition, COS Binding: concentration of 3000 nM
T2 construct: expressed in transfected cells; host or cells: COS-7 cells transduced with adenovirus AdEasy+rAR
T2 sequence (P15207 1-902): T1 sequence (P15207 1-902)
How it was run: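 COS-7 cells in phenol red-free DMEM/F12 with 10% charcoal-treated FBS were transduced with AdEasy+rAR adenovirus (moi 1:50 per well), exposed to test compound in duplicate and incubated for 48 h at 37° C. Cells were then lysed in 0.5% Triton X-100 and bound radioactivity counted by scintillation.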

[3] = read-out: IC50 (nM), COS Binding

| SMILES | inhibition at 3 µM [1] [%] | % Activity, L929 androgen receptor functional assay ([1]; 3000 nM) [%] | inhibition at 3 µM [2] [%] | IC50 [2, 3] | further results |
| --- | --- | --- | --- | --- | --- |
| CCSCC(O)(CC)c1cc2cc([N+](=O)[O-])c(C(F)(F)F)cc2[nH]1 (centres unmarked) [Compound 169] | 98 | 2 | 90 | 48 nM |  |
| CSCC(C)(O)c1cc2cc([N+](=O)[O-])c(C(F)(F)F)cc2[nH]1 (single isomer, unassigned) [Compound 144] | 82 |  |  | 375 nM | % Activity, L929 androgen receptor functional assay ([1]; 3000 nM, 3 µM): 0% |
| CC(C)SCC(C)(O)c1cc2cc([N+](=O)[O-])c(C(F)(F)F)cc2[nH]1 (centres unmarked) [Compound 164] | 71 | 2 | 68 | > 1000 nM |  |
| CCSCC(C)(O)c1cc2cc([N+](=O)[O-])c(C(F)(F)F)cc2[nH]1 (single isomer, unassigned) [Compound 149] | 77 | 2 | 63 | 780 nM and > 790 nM |  |
| CCSCC(C)(O)c1cc2cc([N+](=O)[O-])c(C(F)(F)F)cc2[nH]1 (single isomer, unassigned) [Compound 150] |  |  |  | 165 nM and 627 nM | EC50 [1]: > 8000 nM; % Activity, L929 androgen receptor functional assay ([1]; @ 8000 nM): 0 @ 8000 nM %; IC50 [1]: 303 nM; % Inhibition, COS Binding ([2]; 3 µM): 81% and 74% |
| CC(O)(CS(C)(=O)=O)c1cc2cc([N+](=O)[O-])c(C(F)(F)F)cc2[nH]1 (centres unmarked) [Compound 148] |  | 0 |  | > 2400 nM | % Inhibition, L929 androgen receptor functional assay ([1]; 3 µM): 77%; % Inhibition, COS Binding ([2]; 3 µM): 32% |
| CC(O)(CS(C)(=O)=O)c1cc2cc(Cl)c(C(F)(F)F)cc2[nH]1 (centres unmarked) [Compound 138] | 19 | 0 | 78 | 317 nM |  |
| CCSCC(C)(O)c1cc2cc([N+](=O)[O-])c(C(F)(F)F)cc2n1S(C)(=O)=O (centres unmarked) [Compound 141] | 42 | 0 | 42 | > 3000 nM |  |
| COc1ccc(S(=O)(=O)CC(C)(O)c2cc3cc(Cl)c(C(F)(F)F)cc3[nH]2)cc1 (racemic) [Compound 129] |  | −5 |  |  | % Inhibition, L929 androgen receptor functional assay [1]: −8%; % Inhibition, COS Binding [2]: 10% |
| CCS(=O)(=O)CC(C)(O)c1cc2cc([N+](=O)[O-])c(C(F)(F)F)cc2[nH]1 (centres unmarked) [Compound 143] | 67 | 0 | 68 | > 1500 nM |  |
| CC(O)(C[S+]([O-])Cc1ccccc1)c1cc2cc([N+](=O)[O-])c(C(F)(F)F)cc2[nH]1 (mixture of isomers) [Compound 161] |  | 2 |  |  | % Inhibition, COS Binding [2]: 20% |
| CCC(O)(CS(=O)(=O)CC)c1cc2cc([N+](=O)[O-])c(C(F)(F)F)cc2[nH]1 (centres unmarked) [Compound 176] | 81 | 3 | 75 |  |  |
| CSCC(C)(O)c1cc2cc(Cl)c(C(F)(F)F)cc2[nH]1 (centres unmarked) [Compound 135] | 40 | 0 | 98 | 320 nM |  |
| CSCC(C)(O)c1cc2cc(C#N)c(C(F)(F)F)cc2[nH]1 (centres unmarked) [Compound 136] | 75 | 0 | 4.8 | 527 nM |  |
| CC(O)(CSCc1ccccc1)c1cc2cc([N+](=O)[O-])c(C(F)(F)F)cc2[nH]1 (centres unmarked) [Compound 160] | 76 | 1 | 84 | 250 nM |  |
| CC(O)(CSc1ccc([N+](=O)[O-])cc1)c1cc2cc(Cl)c(C(F)(F)F)cc2[nH]1 (centres unmarked) [Compound 122] | 35 | 10 | 66 | > 1600 nM |  |
| CCS(=O)(=O)C[C@](C)(O)c1cc2cc([N+](=O)[O-])c(C(F)(F)F)cc2[nH]1 [Compound 156, 1-Ethanesulfonyl-2-(5-nitro-6-trifluoromethyl-1H-indol-2-yl)-propan-2-ol] | 35 | 2 | 42 |  | % Inhibition, L929 androgen receptor functional assay ([1]; 3 µM): 23%; IC50 ([2]; IC50 (nM), COS Binding): > 1000 nM; % Inhibition, COS Binding ([2]; 3 µM): 52% |
| CC(O)(CCS(C)(=O)=O)c1cc2cc([N+](=O)[O-])c(C(F)(F)F)cc2[nH]1 (centres unmarked) [Compound 49] | 8 | 2 | 30 | > 3000 nM |  |
| CCSCC(C)(O)c1cc2cc([N+](=O)[O-])c(C(F)(F)F)cc2n1C (racemic) [Compound 165] | 100 | 1 | 69 | > 3000 nM |  |
| CCSCC(C)(O)c1cc2cc([N+](=O)[O-])c(C(F)(F)F)cc2[nH]1 (racemic) [Compound 142] | 78 | 0 | 90 | 220 nM |  |
| CC(C)CSCC(C)(O)c1cc2cc([N+](=O)[O-])c(C(F)(F)F)cc2[nH]1 (centres unmarked) [Compound 170] | 67 | 2 | 67 | > 3000 nM |  |
| CC[S+]([O-])C[C@](C)(O)c1cc2cc([N+](=O)[O-])c(C(F)(F)F)cc2[nH]1 (stereo in doubt) [Compound 155, 1-Ethanesulfinyl-2-(5-nitro-6-trifluoromethyl-1H-indol-2-yl)-propan-2-ol] | -2 | 2 | 35 |  |  |
| CCSCC(O)c1cc2cc([N+](=O)[O-])c(C(F)(F)F)cc2[nH]1 (centres unmarked) [Compound 158] | 21 |  | 62 | 160 nM and 550 nM | % Activity, L929 androgen receptor functional assay ([1]; 3000 nM, 3 µM): 3% and 2%; % Inhibition, L929 androgen receptor functional assay ([1]; 3 µM): 29%; % Inhibition, COS Binding ([2]; 3 µM): 56% |
| CC(O)(CSc1ccc(N)cc1)c1cc2cc(Cl)c(C(F)(F)F)cc2[nH]1 (centres unmarked) [Compound 104] | 18 | 9 | 94 |  |  |
| CSCCC(C)(O)c1cc2cc([N+](=O)[O-])c(C(F)(F)F)cc2[nH]1 (centres unmarked) [Compound 47] | 75 | 2 | 78 | > 1000 nM |  |
| CSCC(C)(O)c1cc2cc([N+](=O)[O-])c(C(F)(F)F)cc2[nH]1 (single isomer, unassigned) [Compound 145] |  |  | 84.7 | 36.7 nM | % Activity, L929 androgen receptor functional assay ([1]; 3000 nM, 3 µM): 1%; % Inhibition, L929 androgen receptor functional assay ([1]; 3 µM): 94% |
| CC(O)(CSC1CCCC1)c1cc2cc([N+](=O)[O-])c(C(F)(F)F)cc2[nH]1 (centres unmarked) [Compound 173] | 40 | 2 | 17 | > 3000 nM |  |
| CCS(=O)(=O)CC(C)(O)c1cc2cc([N+](=O)[O-])c(C(F)(F)F)cc2[nH]1 (centres unmarked) [Compound 151] |  |  |  | > 970 nM and 2190 nM | EC50 [1]: > 8000 nM; % Activity, L929 androgen receptor functional assay ([1]; @ 8000 nM): −1 @ 8000 nM %; IC50 [1]: 533 nM; % Inhibition, COS Binding ([2]; 3 µM): 55% |
| CC(O)(CSc1ccc(O)cc1)c1cc2cc(Cl)c(C(F)(F)F)cc2[nH]1 (centres unmarked) [Compound 120] | 44 | −5 | 86 | 205 nM |  |
| CC(O)(CS(=O)(=O)c1ccc(O)cc1)c1cc2cc(Cl)c(C(F)(F)F)cc2[nH]1 (centres unmarked) [Compound 121] | 54 | −4 | 72 | > 1800 nM |  |
